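Cells were grown in 96-well plates and exposed to each compound for 48 hours at five concentrations; endpoints were interpolated linearly between bracketing concentrations, or set to the highest concentration if not reached. GI50 is the concentration that inhibits growth by half. TGI marks complete inhibition of growth.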
Columns and labels:
Test in all cases: DTP human tumour cell line panel, 48 h
DU-145 prostate = system: DU-145 prostate
PC-3 prostate = system: PC-3 prostate
786-0 renal = system: 786-0 renal
A498 renal = system: A498 renal
SK-OV-3 ovarian = system: SK-OV-3 ovarian
NCI-H460 lung = system: NCI-H460 lung
UACC-257 melanoma = system: UACC-257 melanoma
OVCAR-8 ovarian = system: OVCAR-8 ovarian
NCI-H226 lung = system: NCI-H226 lung
HCT-116 colon = system: HCT-116 colon
MDA-MB-435 = system: MDA-MB-435
HL-60(TB) leukemia = system: HL-60(TB) leukemia
NCI-H23 lung = system: NCI-H23 lung
MDA-MB-231 breast = system: MDA-MB-231 breast
CAKI-1 renal = system: CAKI-1 renal
UO-31 renal = system: UO-31 renal
SF-268 CNS = system: SF-268 CNS
SK-MEL-5 melanoma = system: SK-MEL-5 melanoma

Structure (SMILES)	TGI (DU-145 prostate) [µM]	TGI (PC-3 prostate) [µM]	TGI (786-0 renal) [µM]	TGI (A498 renal) [µM]	TGI (SK-OV-3 ovarian) [µM]	TGI (NCI-H460 lung) [µM]	TGI (UACC-257 melanoma) [µM]	TGI (OVCAR-8 ovarian) [µM]	TGI (NCI-H226 lung) [µM]	TGI (HCT-116 colon) [µM]	TGI (MDA-MB-435) [µM]	TGI (HL-60(TB) leukemia) [µM]	TGI (NCI-H23 lung) [µM]	TGI (MDA-MB-231 breast) [µM]	TGI (CAKI-1 renal) [µM]	TGI (UO-31 renal) [µM]	TGI (SF-268 CNS) [µM]	TGI (SK-MEL-5 melanoma) [µM]	GI50 (A498 renal) [µM]	GI50 (CAKI-1 renal) [µM]
CCC1CN2CCc3cc(OC)c(OC)cc3C2CC1CC1c2cc(OC)c(OC)cc2CCN1C(=O)C(Cc1c[nH]c2ccccc12)NC(=O)OC(C)(C)C (centres undefined)	4.75	10.5	6.74	17.8	9.48	7.15	8.53	8.58	27.6	5.78	3.4	3.8	16.6	3.66	16.7	7.77	15.9	3.08	–	–
Brc1ccc2[nH]cc([C@@H]3CN[C@@H](c4c[nH]c5ccc(Br)cc45)CN3)c2c1	12.6	14.7	14.3	28.7	25.7	24.4	23.7	13.8	31.3	9.2	11.9	4.24	25.3	14.2	21.9	9.47	27.8	20.8	–	–
CCOC(=O)c1sc2c(c1OC(=O)c1ccc(Cl)cc1Cl)c(=O)n(-c1ccccc1)c(=S)n2-c1ccccc1	> 100	> 100	> 100	46.1	> 81.2	> 55	> 100	> 100	> 33.6	> 78.5	> 100	30.9	> 82.6	> 90.8	> 100	> 100	> 100	51.1	–	–
CCOc1ccc(-n2c(=O)c3nn4c(=O)n(-c5ccc(OCC)cc5)c(=O)c4nn3c2=O)cc1	> 100	> 100	> 100	67.9	> 100	> 100	> 100	> 100	> 100	> 100	> 100	> 100	> 100	> 100	> 100	> 100	> 100	> 100	–	–
CCN(CC)CCC1CCCCN1CC(=O)N1c2ccccc2NC(=O)CC1C (centres undefined)	> 100	> 100	> 100	> 100	> 100	> 100	> 100	> 100	> 100	> 100	> 100	> 100	> 100	> 100	> 100	> 100	> 100	> 100	–	–
Cc1cc(C)c2c(=O)cc(-c3ccccc3)[nH]c2c1	98.4	> 93.2	11.4	10.5	15.7	31.2	> 100	46.9	48.9	15.8	41.6	4.71	16.5	39.7	> 47.2	27.8	46.7	30.6	–	–
N[C@@H]1c2c(Br)sc(Br)c2C(=O)[C@H]1Br	> 100	> 84.8	63.5	> 69.9	> 100	> 100	> 75.3	48.4	> 58.4	39.9	> 61	> 24.8	57.4	48.5	66.4	55.6	> 100	> 100	–	–
CC(=O)OCC(OC(C)=O)C(OC(C)=O)C(/C=N\Nc1nc2ccccc2c(=O)[nH]1)OC(C)=O (centres undefined)	> 100	> 100	> 100	> 100	> 100	> 100	> 100	> 100	> 100	> 100	> 100	> 100	> 100	> 100	> 100	> 100	> 100	> 100	–	–
CN1CCN(Cn2nc(-c3ccccc3)n(/N=C/c3ccc(-c4ccc(Cl)cc4Cl)o3)c2=S)CC1	21	22	33.9	58.1	27.3	> 100	47.5	25.8	53.2	14.8	46.1	80.3	40.7	29.9	21.9	29	26.2	68.9	–	–
COc1cc(C2SC(N)=Nc3c2c(C)nn3C(=O)Cc2ccccc2)cc(OC)c1OC (centres undefined)	> 100	> 100	> 100	> 100	> 100	> 100	> 100	> 100	> 100	> 100	> 100	> 100	> 100	> 100	> 100	> 100	> 100	> 100	–	–
CCOC(=O)c1ccc(N(C)Cc2cnc3nc(N)nc(N)c3n2)cc1	> 100	88.4	> 100	59.8	51.4	> 100	> 100	29.2	41.8	> 100	> 100	> 100	> 100	81.7	45	72.1	> 100	> 100	–	–
CCOC(=O)C(CC(C)C)NC(=O)C(N)Cc1ccc(N(CCCl)CCCl)cc1 (centres undefined)	47.1	32.2	6.81	30.9	16.6	0.426	26.9	24.9	29.5	17.9	46.2	2.51	7.09	32.3	15.3	5.97	16.8	19.8	–	–
NCCSC1(O)C(=O)c2ccccc2-c2ccccc21 (centres undefined)	2.28	2.56	3.46	3.11	2.95	3.34	2.09	1.16	2.99	1.04	0.207	2.55	3.75	2.53	3.05	2.87	2.91	1.34	1.71	1.63
O=C(CC(O)(C(F)(F)Cl)C(F)(F)Cl)CC(O)(C(F)(F)Cl)C(F)(F)Cl	> 10	8.2	> 10	7.74	5.89	> 10	6.17	> 10	4.66	3.68	8.63	4.94	4.29	5.29	6.62	> 10	> 10	4.62	–	–
Brc1ccc(N=C/C=C(\Nc2ccc(Br)cc2)C23CC4CC(CC(C4)C2)C3)cc1	35.4	41	28.9	79.7	> 100	> 68.8	36.8	> 81.3	> 100	23.8	24.7	23.3	> 65.8	31.9	25.4	34.6	37.9	26.6	–	–
CCOC(=O)C(=NN(C)c1ncccc1N)C(=O)OCC	> 100	> 100	87.2	> 100	> 100	> 100	58.7	> 100	47.6	65.4	44.5	84.2	> 100	83.3	> 100	> 100	> 100	> 100	–	–
Cc1ccc2[nH]c3c(C)c4cc[n+](C)cc4c(C)c3c2c1	33.5	7.63	2.75	4.53	50.2	40.7	20.2	8.97	3.24	32.6	13.7	29.8	5.77	> 44.7	> 56.5	60.2	1.77	8.54	–	–
Cc1ccc(OC2CC(n3cnc4c(=O)[nH]c(Br)nc43)OC2Oc2ccc(C)cc2)cc1 (centres undefined)	53.9	49.8	74.9	> 100	> 100	43.2	62.2	66.5	> 100	> 100	57.1	59.2	70.3	46.9	75.7	38.4	58.1	58.7	–	–
c1ccc(C2C3=C(c4ccccc4CC3)N3c4cc5nc6ccccc6nc5cc4NC34CCCCC24)cc1 (centres undefined)	> 10	> 10	> 10	> 10	> 10	> 10	> 10	> 10	> 10	> 10	> 10	> 6.29	> 10	> 10	> 10	> 10	> 10	> 10	–	–

— PubChem BioAssay (NCI)
